Measured values as given in ChEMBL document CHEMBL3272011, “Aminobenzoic acid diuretics. 9. 3,4-Disubstituted 5-acylaminobenzoic acids and related compounds” (1977).
Calls of active or inactive are those of the source. The rule behind the calls is not given here.

Experiments:
Canis familiaris [1] = experiment: Diuretic effect in mongrel dog assessed as urinary excretion of water at 1 mg/kg, iv after 3 hrs (reference value: 0.93 +/- 0.35 ml/kg); type: functional, Canis lupus familiaris, Urine
Canis familiaris [2] = experiment: Diuretic effect in mongrel dog assessed as urinary excretion of water at 10 mg/kg, iv after 3 hrs (reference value: 0.93 +/- 0.35 ml/kg); type: functional, Canis lupus familiaris, Urine
Canis familiaris [3] = experiment: Diuretic effect in mongrel dog assessed as urinary excretion of Na+ at 1 mg/kg, iv after 3 hrs (reference value: 0.10 +/- 0.02 mequiv/kg); type: functional, Canis lupus familiaris, Urine
Canis familiaris [4] = experiment: Diuretic effect in mongrel dog assessed as urinary excretion of Na+ at 10 mg/kg, iv after 3 hrs (reference value: 0.10 +/- 0.02 mequiv/kg); type: functional, Canis lupus familiaris, Urine
Canis familiaris [5] = experiment: Diuretic effect in mongrel dog assessed as urinary excretion of K+ at 1 mg/kg, iv after 3 hrs (reference value: 0.16 +/- 0.01 mequiv/kg); type: functional, Canis lupus familiaris, Urine
Canis familiaris [6] = experiment: Diuretic effect in mongrel dog assessed as urinary excretion of K+ at 10 mg/kg, iv after 3 hrs (reference value: 0.16 +/- 0.01 mequiv/kg); type: functional, Canis lupus familiaris, Urine
Canis familiaris [7] = experiment: Diuretic effect in mongrel dog assessed as urinary excretion of Cl- at 1 mg/kg, iv after 3 hrs (reference value: 0.08 +/- 0.02 mequiv/kg); type: functional, Canis lupus familiaris, Urine
Canis familiaris [8] = experiment: Diuretic effect in mongrel dog assessed as urinary excretion of Cl- at 10 mg/kg, iv after 3 hrs (reference value: 0.08 +/- 0.02 mequiv/kg); type: functional, Canis lupus familiaris, Urine
Canis familiaris [9] = experiment: Diuretic effect in mongrel dog assessed as urinary excretion of water at 0.25 mg/kg, iv after 3 hrs (reference value: 0.93 +/- 0.35 ml/kg); type: functional, Canis lupus familiaris, Urine
Canis familiaris [10] = experiment: Diuretic effect in mongrel dog assessed as urinary excretion of Na+ at 0.25 mg/kg, iv after 3 hrs (reference value: 0.10 +/- 0.02 mequiv/kg); type: functional, Canis lupus familiaris, Urine
Canis familiaris [11] = experiment: Diuretic effect in mongrel dog assessed as urinary excretion of K+ at 0.25 mg/kg, iv after 3 hrs (reference value: 0.16 +/- 0.01 mequiv/kg); type: functional, Canis lupus familiaris, Urine
Canis familiaris [12] = experiment: Diuretic effect in mongrel dog assessed as urinary excretion of Cl- at 0.25 mg/kg, iv after 3 hrs (reference value: 0.08 +/- 0.02 mequiv/kg); type: functional, Canis lupus familiaris, Urine
Canis familiaris [13] = experiment: Diuretic effect in mongrel dog assessed as urinary excretion of water at 0.25 mg/kg, po after 3 hrs (reference value: 0.93 +/- 0.35 ml/kg); type: functional, Canis lupus familiaris, Urine
Canis familiaris [14] = experiment: Diuretic effect in mongrel dog assessed as urinary excretion of Na+ at 0.25 mg/kg, po after 3 hrs (reference value: 0.10 +/- 0.02 mequiv/kg); type: functional, Canis lupus familiaris, Urine
Canis familiaris [15] = experiment: Diuretic effect in mongrel dog assessed as urinary excretion of K+ at 0.25 mg/kg, po after 3 hrs (reference value: 0.16 +/- 0.01 mequiv/kg); type: functional, Canis lupus familiaris, Urine
Canis familiaris [16] = experiment: Diuretic effect in mongrel dog assessed as urinary excretion of Cl- at 0.25 mg/kg, po after 3 hrs (reference value: 0.08 +/- 0.02 mequiv/kg); type: functional, Canis lupus familiaris, Urine
Canis familiaris [17] = experiment: Diuretic effect in mongrel dog assessed as urinary excretion of Cl- at 1 mg/kg, po after 3 hrs (reference value: 0.08 +/- 0.02 mequiv/kg)
Canis familiaris [18] = experiment: Diuretic effect in mongrel dog assessed as urinary excretion of water at 1 mg/kg, po after 3 hrs (reference value: 0.93 +/- 0.35 ml/kg); type: functional
Canis familiaris [19] = experiment: Diuretic effect in mongrel dog assessed as urinary excretion of Na+ at 1 mg/kg, po after 3 hrs (reference value: 0.10 +/- 0.02 mequiv/kg); type: functional, Canis lupus familiaris, Urine
Canis familiaris [20] = experiment: Diuretic effect in mongrel dog assessed as urinary excretion of K+ at 1 mg/kg, po after 3 hrs (reference value: 0.16 +/- 0.01 mequiv/kg); type: functional, Canis lupus familiaris, Urine
Canis familiaris [21] = experiment: Diuretic effect in mongrel dog assessed as urinary excretion of Cl- at 1 mg/kg, po after 3 hrs (reference value: 0.08 +/- 0.02 mequiv/kg); type: functional, Canis lupus familiaris, Urine
Canis familiaris [22] = experiment: Diuretic effect in mongrel dog assessed as urinary excretion of water at 0.1 mg/kg, iv after 3 hrs (reference value: 0.93 +/- 0.35 ml/kg); type: functional, Canis lupus familiaris, Urine
Canis familiaris [23] = experiment: Diuretic effect in mongrel dog assessed as urinary excretion of Na+ at 0.1 mg/kg, iv after 3 hrs (reference value: 0.10 +/- 0.02 mequiv/kg); type: functional, Canis lupus familiaris, Urine
Canis familiaris [24] = experiment: Diuretic effect in mongrel dog assessed as urinary excretion of K+ at 0.1 mg/kg, iv after 3 hrs (reference value: 0.16 +/- 0.01 mequiv/kg); type: functional, Canis lupus familiaris, Urine
Canis familiaris [25] = experiment: Diuretic effect in mongrel dog assessed as urinary excretion of Cl- at 0.1 mg/kg, iv after 3 hrs (reference value: 0.08 +/- 0.02 mequiv/kg); type: functional, Canis lupus familiaris, Urine

SMILES | Activity (Canis familiaris [1]) | Activity (Canis familiaris [3]) | Activity (Canis familiaris [5]) | Activity (Canis familiaris [7]) | Activity (Canis familiaris [1]; Canis lupus familiaris, Urine) | further results
CCCNC(=O)Nc1cc(C(=O)O)cc(NCc2ccccc2)c1Oc1ccccc1 | 4 mL/kg | 0.4 milliequivalent/kg | 0.12 milliequivalent/kg | 0.3 milliequivalent/kg |  | Activity (Canis familiaris [2]): 11 mL/kg; Activity (Canis familiaris [4]): 1.1 milliequivalent/kg; Activity (Canis familiaris [6]): 0.4 milliequivalent/kg; Activity (Canis familiaris [8]): 1.9 milliequivalent/kg
O=CNc1cc(C(=O)O)cc(OCc2ccccc2)c1-c1ccccc1 | 12 mL/kg | 1.3 milliequivalent/kg | 0.39 milliequivalent/kg | 1.6 milliequivalent/kg |  | 
O=CNc1cc(C(=O)O)cc(NCc2ccccc2)c1Oc1ccccc1 | 8 mL/kg | 1.3 milliequivalent/kg | 0.26 milliequivalent/kg | 1.3 milliequivalent/kg |  | Activity (Canis familiaris [9]): 9 mL/kg; Activity (Canis familiaris [10]): 1.1 milliequivalent/kg; Activity (Canis familiaris [11]): 0.23 milliequivalent/kg; Activity (Canis familiaris [12]): 1.5 milliequivalent/kg
CCC(=O)Nc1cc(C(=O)O)cc(OCc2ccccc2)c1C(=O)c1ccccc1 | 7 mL/kg | 0.6 milliequivalent/kg | 0.2 milliequivalent/kg | 0.9 milliequivalent/kg |  | 
O=CNc1cc(C(=O)O)cc(SCc2ccccc2)c1C(=O)c1ccccc1 | 26 mL/kg | 2.8 milliequivalent/kg | 0.27 milliequivalent/kg |  |  | Activity (Canis familiaris [13]): 10 mL/kg; Activity (Canis familiaris [14]): 0.5 milliequivalent/kg; Activity (Canis familiaris [15]): 0.1 milliequivalent/kg; Activity (Canis familiaris [16]): 0.7 milliequivalent/kg; Activity (Canis familiaris [17]): 3.5 milliequivalent/kg
O=CNc1cc(C(=O)O)cc(SCc2ccccc2)c1-c1ccccc1 |  |  |  |  | inactive | 
CC(=O)Nc1cc(C(=O)O)cc(NCc2ccccc2)c1Oc1ccccc1 | 11 mL/kg | 1.4 milliequivalent/kg | 0.55 milliequivalent/kg | 2.1 milliequivalent/kg |  | Activity (Canis familiaris [2]): 27 mL/kg; Activity (Canis familiaris [4]): 2.8 milliequivalent/kg; Activity (Canis familiaris [6]): 0.8 milliequivalent/kg; Activity (Canis familiaris [8]): 3.8 milliequivalent/kg
O=C(O)c1cc(NC(=O)C(F)(F)F)c(C(=O)c2ccccc2)c(OCc2ccccc2)c1 |  |  |  |  |  | Activity (Canis familiaris [18]; Canis lupus familiaris, Urine): inactive
CC(=O)Nc1cc(C(=O)O)cc(OCc2ccccc2)c1C(=O)c1ccccc1 | 14 mL/kg | 1.3 milliequivalent/kg | 0.45 milliequivalent/kg | 3 milliequivalent/kg |  | 
CNc1cc(C(=O)O)cc(OCc2ccccc2)c1C(=O)c1ccccc1 |  |  |  |  | inactive | Activity (Canis familiaris [3]; Canis lupus familiaris, Urine): inactive; Activity (Canis familiaris [5]; Canis lupus familiaris, Urine): inactive; Activity (Canis familiaris [7]; Canis lupus familiaris, Urine): inactive
CCCCOc1cc(C(=O)O)cc(NC(C)=O)c1C(=O)c1ccccc1 |  |  |  |  |  | Activity (Canis familiaris [19]): 2.1 milliequivalent/kg; Activity (Canis familiaris [18]): 18 mL/kg; Activity (Canis familiaris [20]): 0.53 milliequivalent/kg; Activity (Canis familiaris [21]): 2.5 milliequivalent/kg
O=CNc1cc(C(=O)O)cc(NCc2ccccc2)c1-c1ccccc1 | 12 mL/kg | 1.6 milliequivalent/kg | 0.43 milliequivalent/kg | 1.7 milliequivalent/kg |  | 
CN(C)c1cc(C(=O)O)cc(OCc2ccccc2)c1C(=O)c1ccccc1 |  |  |  |  | inactive | Activity (Canis familiaris [3]; Canis lupus familiaris, Urine): inactive; Activity (Canis familiaris [5]; Canis lupus familiaris, Urine): inactive; Activity (Canis familiaris [7]; Canis lupus familiaris, Urine): inactive
O=C(CCl)Nc1cc(C(=O)O)cc(OCc2ccccc2)c1C(=O)c1ccccc1 |  |  |  |  | inactive | 
C=CCSc1cc(C(=O)O)cc(NC=O)c1C(=O)c1ccccc1 |  |  |  |  | inactive | 
CCNc1cc(C(=O)O)cc(OCc2ccccc2)c1C(=O)c1ccccc1 |  |  |  |  | inactive | Activity (Canis familiaris [3]; Canis lupus familiaris, Urine): inactive; Activity (Canis familiaris [5]; Canis lupus familiaris, Urine): inactive; Activity (Canis familiaris [7]; Canis lupus familiaris, Urine): inactive

SMILES | Activity (Canis familiaris [1]) | Activity (Canis familiaris [3]) | Activity (Canis familiaris [5]) | Activity (Canis familiaris [7]) | Activity (Canis familiaris [1]; Canis lupus familiaris, Urine) | further results
CN(C=O)c1cc(C(=O)O)cc(OCc2ccccc2)c1C(=O)c1ccccc1 |  |  |  |  | Active | Activity (Canis familiaris [3]; Canis lupus familiaris, Urine): Active; Activity (Canis familiaris [5]; Canis lupus familiaris, Urine): Active; Activity (Canis familiaris [7]; Canis lupus familiaris, Urine): Active
CNC(=O)Nc1cc(C(=O)O)cc(NCc2ccccc2)c1Oc1ccccc1 | 8 mL/kg | 0.7 milliequivalent/kg | 0.2 milliequivalent/kg | 1.1 milliequivalent/kg |  | 
O=C(O)c1cc(NC(=O)c2ccccc2)c(C(=O)c2ccccc2)c(OCc2ccccc2)c1 |  |  |  |  | inactive | 
O=CNc1cc(C(=O)O)cc(SCc2ccccc2)c1Oc1ccccc1 |  |  |  |  | inactive | 
O=CNc1cc(C(=O)O)cc(OCc2ccsc2)c1C(=O)c1ccccc1 |  |  |  |  |  | Activity (Canis familiaris [9]): 17 mL/kg; Activity (Canis familiaris [10]): 2.2 milliequivalent/kg; Activity (Canis familiaris [19]): 3.1 milliequivalent/kg; Activity (Canis familiaris [11]): 0.49 milliequivalent/kg; Activity (Canis familiaris [12]): 2.8 milliequivalent/kg; Activity (Canis familiaris [18]): 26 mL/kg; Activity (Canis familiaris [20]): 0.64 milliequivalent/kg; Activity (Canis familiaris [21]): 4.1 milliequivalent/kg
CN(C)CC(=O)Nc1cc(C(=O)O)cc(OCc2ccccc2)c1C(=O)c1ccccc1 |  |  |  |  |  | Activity (Canis familiaris [18]; Canis lupus familiaris, Urine): inactive
CC(=O)Nc1cc(C(=O)O)cc(NCc2ccccc2)c1C(=O)c1ccccc1 | 6 mL/kg | 0.4 milliequivalent/kg | 0.21 milliequivalent/kg | 0.4 milliequivalent/kg |  | Activity (Canis familiaris [2]): 22 mL/kg; Activity (Canis familiaris [4]): 1.7 milliequivalent/kg; Activity (Canis familiaris [6]): 0.58 milliequivalent/kg; Activity (Canis familiaris [8]): 2.2 milliequivalent/kg
CC(=O)Nc1cc(C(=O)O)cc(OCc2ccccc2)c1-c1ccccc1 | 8 mL/kg | 1 milliequivalent/kg | 0.22 milliequivalent/kg | 1.1 milliequivalent/kg |  | 
CC(C)CCSc1cc(C(=O)O)cc(NC=O)c1C(=O)c1ccccc1 |  |  |  |  |  | Activity (Canis familiaris [19]): 1.6 milliequivalent/kg; Activity (Canis familiaris [18]): 15 mL/kg; Activity (Canis familiaris [20]): 0.39 milliequivalent/kg; Activity (Canis familiaris [21]): 1.9 milliequivalent/kg
NS(=O)(=O)c1cc(C(=O)O)cc(OCc2ccccc2)c1C(=O)c1ccccc1 |  |  |  |  |  | Activity (Canis familiaris [22]): 12 mL/kg; Activity (Canis familiaris [23]): 1 milliequivalent/kg; Activity (Canis familiaris [24]): 0.42 milliequivalent/kg; Activity (Canis familiaris [25]): 2 milliequivalent/kg; Activity (Canis familiaris [13]): 33 mL/kg; Activity (Canis familiaris [14]): 3.6 milliequivalent/kg; Activity (Canis familiaris [15]): 0.89 milliequivalent/kg; Activity (Canis familiaris [16]): 4.4 milliequivalent/kg
CCCCOc1cc(C(=O)O)cc(NC=O)c1C(=O)c1ccccc1 | 17 mL/kg | 2.1 milliequivalent/kg |  |  |  | Activity (Canis familiaris [22]): 6 mL/kg; Activity (Canis familiaris [23]): 0.5 milliequivalent/kg
NC(=O)Nc1cc(C(=O)O)cc(NCc2ccccc2)c1Oc1ccccc1 | 13 mL/kg | 1.3 milliequivalent/kg | 0.33 milliequivalent/kg | 1.7 milliequivalent/kg |  | 
CCN(C=O)c1cc(C(=O)O)cc(OCc2ccccc2)c1C(=O)c1ccccc1 |  |  |  |  | inactive | Activity (Canis familiaris [3]; Canis lupus familiaris, Urine): inactive; Activity (Canis familiaris [5]; Canis lupus familiaris, Urine): inactive; Activity (Canis familiaris [7]; Canis lupus familiaris, Urine): inactive
CCCSc1cc(C(=O)O)cc(NC=O)c1C(=O)c1ccccc1 | 8 mL/kg | 1 milliequivalent/kg | 0.42 milliequivalent/kg | 1.2 milliequivalent/kg |  | 
O=CNc1cc(C(=O)O)cc(SCc2ccsc2)c1Oc1ccccc1 | 11 mL/kg | 1.3 milliequivalent/kg | 0.45 milliequivalent/kg | 1.9 milliequivalent/kg |  | 
CCCOc1cc(C(=O)O)cc(NC=O)c1C(=O)c1ccccc1 | 10 mL/kg | 2 milliequivalent/kg | 0.52 milliequivalent/kg | 1.2 milliequivalent/kg |  | 
